Results as given in PubChem BioAssay (NCI).
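Growth conditions: 96-well plates. Treatment: test compound, 48 hours, 5 concentrations. Analysis: linear interpolation between bracketing concentrations; unreached endpoints set to highest concentration. GI50 marks 50% less growth. At the TGI there is no net growth.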

Columns and labels:
Test in all cases: growth of human tumour cells (NCI), 48 h
[1] = tested on: NCI-H226 lung
[2] = tested on: U251 CNS
[3] = tested on: KM12 colon
[4] = tested on: MDA-MB-435
[5] = tested on: IGROV1 ovarian
[6] = tested on: SN12C renal
[7] = tested on: DU-145 prostate
[8] = tested on: MALME-3M melanoma
[9] = tested on: EKVX NSCLC
[10] = tested on: UO-31 renal
[11] = tested on: CCRF-CEM leukemia
[12] = tested on: NCI/ADR-RES ovarian
[13] = tested on: UACC-62 melanoma
[14] = tested on: SK-OV-3 ovarian
[15] = tested on: SNB-19 CNS
[16] = tested on: UACC-257 melanoma
[17] = tested on: SK-MEL-2 melanoma
[18] = tested on: MOLT-4 leukemia
[19] = tested on: RXF 393 renal
[20] = tested on: OVCAR-5 ovarian
[21] = tested on: OVCAR-8 ovarian
[22] = tested on: SR leukemia
[23] = tested on: HT29 colon
[24] = tested on: T-47D breast
[25] = tested on: A549 NSCLC
[26] = tested on: SF-268 CNS
[27] = tested on: SNB-75 CNS
[28] = tested on: SF-539 CNS
[29] = tested on: HL-60(TB) leukemia
[30] = tested on: HOP-92 NSCLC
[31] = tested on: SK-MEL-28 melanoma
[32] = tested on: MDA-MB-231 breast
[33] = tested on: SK-MEL-5 melanoma
[34] = tested on: TK-10 renal
[35] = tested on: HCT-116 colon
[36] = tested on: ACHN renal
[37] = tested on: RPMI-8226 leukemia
[38] = tested on: CAKI-1 renal
[39] = tested on: 786-0 renal
[40] = tested on: HOP-62 NSCLC
[41] = tested on: SF-295 CNS
[42] = tested on: OVCAR-3 ovarian
[43] = tested on: PC-3 prostate
[44] = tested on: BT-549 breast
[45] = tested on: HCT-15 colon
[46] = tested on: MCF7 breast
[47] = tested on: NCI-H23 lung
[48] = tested on: A498 renal
[49] = tested on: HCC-2998 colon
[50] = tested on: LOX IMVI melanoma
[51] = tested on: M14 melanoma
[52] = tested on: SW-620 colon
[53] = tested on: COLO 205 colon
[54] = tested on: HS 578T breast
[55] = tested on: NCI-H522 lung
[56] = tested on: OVCAR-4 ovarian
[57] = tested on: NCI-H460 lung
[58] = tested on: K-562 leukemia

Compound CCOC(=O)c1c2c(n3ccc(NC(=O)CCN4CCCC4)cc13)C(=O)c1ncccc1C2=O has a GI50 [1] of 19 µM, a TGI [1] of 45.1 µM and a GI50 [2] of 1.27 µM. The TGI [2] was 2.82 µM, the GI50 [3] was 1.52 µM and the TGI [3] was 3.32 µM. The GI50 [4] was 1.53 µM, the TGI [4] was 3.08 µM and the GI50 [5] was 1.01 µM. The TGI [5] was 3.27 µM, the GI50 [6] was 1.43 µM and the TGI [6] was 3.47 µM. The GI50 [7] was 1.46 µM, the TGI [7] was 2.96 µM and the GI50 [8] was 15.8 µM. For the same compound, the TGI [8] was 41.4 µM, the GI50 [9] was 1.46 µM and the TGI [9] was 3.58 µM. The GI50 [10] was 0.724 µM, the TGI [10] was 2.81 µM and the GI50 [11] was 1.88 µM. The TGI [11] was 5.41 µM, the GI50 [12] was 1.27 µM and the TGI [12] was 4.86 µM. For the same compound, the GI50 [13] was 1.39 µM, the TGI [13] was 3.22 µM and the GI50 [14] was 2.22 µM. It also gave a TGI [14] of 23.5 µM, a GI50 [15] of 1.17 µM and a TGI [15] of 3.54 µM. The GI50 [16] was 13.8 µM, the TGI [16] was 33.9 µM and the GI50 [17] was 18.5 µM. For the same compound, the TGI [17] was 39.3 µM, the GI50 [18] was 1.52 µM and the TGI [18] was 4.81 µM. For the same compound, the GI50 [19] was 1.41 µM, the TGI [19] was 3.36 µM and the GI50 [20] was 1.57 µM. It also gave a TGI [20] of 3.42 µM, a GI50 [21] of 1.38 µM and a TGI [21] of 3.49 µM. It also gave a TGI [22] of 1.39 µM, a GI50 [23] of 1.57 µM and a TGI [23] of 3.46 µM. It also gave a GI50 [24] of 1.7 µM, a TGI [24] of 4.24 µM and a GI50 [25] of 1.03 µM. The TGI [25] was 2.67 µM, the GI50 [26] was 0.794 µM and the TGI [26] was 2.65 µM. For the same compound, the GI50 [27] was 1.05 µM, the TGI [27] was 2.41 µM and the GI50 [28] was 1.52 µM. For the same compound, the TGI [28] was 3.19 µM, the GI50 [29] was 1.07 µM and the TGI [29] was 3.32 µM. The GI50 [30] was 11.8 µM, the TGI [30] was 27.5 µM and the GI50 [31] was 16.1 µM. The TGI [31] was 35.9 µM, the GI50 [32] was 1.84 µM and the TGI [32] was 3.83 µM. The GI50 [33] was 15.1 µM, the TGI [33] was 35 µM and the GI50 [34] was 1.26 µM. It also gave a TGI [34] of 2.61 µM, a GI50 [35] of 0.175 µM and a TGI [35] of 1.94 µM. It also gave a GI50 [36] of 0.0382 µM, a TGI [36] of 1.52 µM and a GI50 [37] of 1.56 µM. For the same compound, the TGI [37] was 4.65 µM, the GI50 [38] was 0.181 µM and the TGI [38] was 1.55 µM. For the same compound, the GI50 [39] was 0.214 µM, the TGI [39] was 1.69 µM and the GI50 [40] was 1.08 µM. The TGI [40] was 3.11 µM, the GI50 [41] was 1.1 µM and the TGI [41] was 2.67 µM. It also gave a GI50 [42] of 1.48 µM, a TGI [42] of 3.12 µM and a GI50 [43] of 1.31 µM. The TGI [43] was 2.88 µM, the GI50 [44] was 1.54 µM and the TGI [44] was 3.64 µM.
For Cc1ccc2[nH]cc(-c3nc(-c4c[nH]c5ncccc45)cs3)c2c1, the GI50 [1] was > 100 µM, the TGI [1] was > 100 µM and the GI50 [2] was > 100 µM. For the same compound, the TGI [2] was > 100 µM, the GI50 [45] was > 100 µM and the TGI [45] was > 100 µM. The GI50 [3] was > 100 µM, the TGI [3] was > 100 µM and the GI50 [46] was > 100 µM. The TGI [46] was > 100 µM, the GI50 [4] was > 100 µM and the TGI [4] was > 100 µM. For the same compound, the GI50 [5] was > 100 µM, the TGI [5] was > 100 µM and the GI50 [6] was > 100 µM. The TGI [6] was > 100 µM, the GI50 [10] was 0.244 µM and the TGI [10] was > 100 µM. For the same compound, the GI50 [47] was > 100 µM, the TGI [47] was > 100 µM and the GI50 [48] was 3.11 µM. The TGI [48] was > 100 µM, the GI50 [49] was > 100 µM and the TGI [49] was > 100 µM. The GI50 [11] was > 100 µM, the TGI [11] was > 100 µM and the GI50 [50] was > 100 µM. For the same compound, the TGI [50] was > 100 µM, the GI50 [12] was > 100 µM and the TGI [12] was > 100 µM. For the same compound, the GI50 [13] was > 100 µM, the TGI [13] was > 100 µM and the GI50 [14] was > 100 µM. For the same compound, the TGI [14] was > 100 µM, the GI50 [15] was > 100 µM and the TGI [15] was > 100 µM. The GI50 [16] was > 100 µM, the TGI [16] was > 100 µM and the GI50 [17] was > 100 µM. The TGI [17] was > 100 µM, the GI50 [51] was > 100 µM and the TGI [51] was > 100 µM. The GI50 [18] was > 100 µM, the TGI [18] was > 100 µM and the GI50 [52] was > 100 µM. For the same compound, the TGI [52] was > 100 µM, the GI50 [20] was > 100 µM and the TGI [20] was > 100 µM. The GI50 [21] was > 100 µM, the TGI [21] was > 100 µM and the GI50 [24] was > 100 µM. The TGI [24] was > 100 µM, the GI50 [25] was > 100 µM and the TGI [25] was > 100 µM. The GI50 [26] was > 100 µM, the TGI [26] was > 100 µM and the GI50 [53] was 0.349 µM. The TGI [53] was > 100 µM, the GI50 [54] was > 100 µM and the TGI [54] was > 100 µM. For the same compound, the GI50 [55] was > 100 µM, the TGI [55] was > 100 µM and the GI50 [27] was > 100 µM. For the same compound, the TGI [27] was > 100 µM, the GI50 [28] was > 100 µM and the TGI [28] was > 100 µM. For the same compound, the GI50 [29] was > 100 µM, the TGI [29] was > 100 µM and the GI50 [31] was > 100 µM. For the same compound, the TGI [31] was > 100 µM, the GI50 [32] was > 100 µM and the TGI [32] was > 100 µM. The GI50 [33] was > 100 µM, the TGI [33] was > 100 µM and the GI50 [34] was > 100 µM. For the same compound, the TGI [34] was > 100 µM, the GI50 [35] was > 100 µM and the TGI [35] was > 100 µM. For the same compound, the GI50 [36] was > 100 µM, the TGI [36] was > 100 µM and the GI50 [37] was > 100 µM. For the same compound, the TGI [37] was > 100 µM, the GI50 [40] was > 100 µM and the TGI [40] was > 100 µM. For the same compound, the GI50 [41] was > 100 µM, the TGI [41] was > 100 µM and the GI50 [42] was > 100 µM. For the same compound, the TGI [42] was > 100 µM, the GI50 [43] was > 100 µM and the TGI [43] was > 100 µM. The GI50 [44] was > 100 µM, the TGI [44] was > 100 µM and the GI50 [56] was > 100 µM. The TGI [56] was > 100 µM.
In the case of CC(=O)C(C(C)=O)=C1CCCC(O)O1 (stereo unspecified), the TGI [1] is reported as > 100 µM, the TGI [2] is reported as > 100 µM and the TGI [45] is reported as > 100 µM. For the same compound, the TGI [3] was > 100 µM, the TGI [46] was > 100 µM and the TGI [4] was > 100 µM. For the same compound, the TGI [5] was > 100 µM, the TGI [6] was > 100 µM and the TGI [7] was > 100 µM. For the same compound, the TGI [8] was > 100 µM, the TGI [9] was > 100 µM and the TGI [10] was > 100 µM. The TGI [47] was > 100 µM, the TGI [48] was > 100 µM and the TGI [49] was > 100 µM. The TGI [11] was > 100 µM, the TGI [12] was > 100 µM and the TGI [13] was > 100 µM. For the same compound, the TGI [14] was > 100 µM, the TGI [15] was > 100 µM and the TGI [16] was > 100 µM. The TGI [57] was > 100 µM, the TGI [51] was > 100 µM and the TGI [18] was > 100 µM. The TGI [52] was > 100 µM, the TGI [19] was > 100 µM and the TGI [20] was > 100 µM. For the same compound, the TGI [21] was > 100 µM, the TGI [22] was > 100 µM and the TGI [23] was > 100 µM. For the same compound, the TGI [24] was > 100 µM, the TGI [25] was > 100 µM and the TGI [26] was > 100 µM. The TGI [53] was > 100 µM, the TGI [54] was > 100 µM and the TGI [27] was > 100 µM. The TGI [28] was > 100 µM, the TGI [29] was > 100 µM and the TGI [31] was > 100 µM. For the same compound, the TGI [32] was > 100 µM, the TGI [33] was > 100 µM and the TGI [34] was > 100 µM. For the same compound, the TGI [35] was > 100 µM, the TGI [36] was > 100 µM and the TGI [37] was > 100 µM. For the same compound, the TGI [39] was > 100 µM, the TGI [40] was > 100 µM and the TGI [41] was > 100 µM. For the same compound, the TGI [58] was > 100 µM and the TGI [56] was > 100 µM.
